In US4056520A (Research Corporation, priority 1975, dated 1977):

Test system: pituitary dwarf
Experiment: Metabolic studies in a pituitary dwarf (human growth hormone-like activity)
Assay type: in vivo
Details: same pituitary dwarf
Protocol: There was also observed an increase in urinary calcium. […] This fraction in accordance with this invention evidencing clinical activity was administered by injection into the pituitary dwarf.
In the treatment of the pituitary dwarf mentioned hereinabove with the active A-II fraction, the treatment involved metabolic studies. The pituitary dwarf received 5 milligrams of the A-II fraction dissolved in water twice a day intramuscularly for five days. The active A-II fraction could just as well been given intravenously although one would predict that the effects would be more prolonged with intramuscular injection. It would appear unlikely that the A-II fraction, being a peptide, could efficiently be given orally since it would be digested in the gastrointestinal tract.

In the case of “human growth hormone: human growth hormone given to the same pituitary dwarf for comparison”, the “responses compared with the A-II fraction” value is reported as “qualitatively the same although the human growth hormone was more effective”.
